Results on 20 compounds are retold here after patent US20230271969A1, “NITROGEN-CONTAINING FUSED RING DERIVATIVE INHIBITOR, PREPARATION METHOD THEREFOR AND USE THEREOF” (Shanghai Hansoh Biomedical Co., Ltd., priority 2020, published 2023).

For orientation: IC50 means the concentration at which inhibition is half-maximal.

Assay [1] deals with T1, NK3 receptors (Homo sapiens, UniProt P29371).
T1 construct: expressed in transfected cells
T1 sequence (P29371 1-465): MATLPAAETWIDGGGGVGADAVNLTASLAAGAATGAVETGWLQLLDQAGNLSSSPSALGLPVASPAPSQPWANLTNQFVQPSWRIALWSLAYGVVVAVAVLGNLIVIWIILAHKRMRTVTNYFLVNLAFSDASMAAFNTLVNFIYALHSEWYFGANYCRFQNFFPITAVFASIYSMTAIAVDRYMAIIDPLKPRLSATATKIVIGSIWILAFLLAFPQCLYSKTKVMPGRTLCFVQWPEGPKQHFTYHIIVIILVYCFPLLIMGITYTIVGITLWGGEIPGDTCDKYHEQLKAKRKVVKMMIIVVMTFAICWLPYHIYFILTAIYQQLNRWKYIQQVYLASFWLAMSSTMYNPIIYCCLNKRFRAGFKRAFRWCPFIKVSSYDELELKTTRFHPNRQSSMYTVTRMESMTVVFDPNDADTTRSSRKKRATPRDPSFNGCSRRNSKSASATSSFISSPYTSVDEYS
The assay can be described thus: Calcium ion fluidity (FLIPR) in cells with stable expression of NK3 receptors. In kind it is cell-based. The note with it: calcium signal, antagonist mode, read-out: NK3R IC50 (nM) FLIPR. The text has this:
Determination of the Effect of the Compounds of the Present Invention on Calcium Ion Fluidity in Cells with Stable Expression of NK3 Receptors
Experimental objective: The objective of this test example was to determine the inhibitory effect of the compounds on NK3 receptors.
Experimental Methods: • 1. […] Probenecid and BSA were freshly added on the day of the experiment. The buffers for the experiments included dye buffer, compound dilution buffer and the like. • 2. […] The culture medium was discarded, and 20 μL of dye was added. The cells were incubated at 37° C. in the dark for 60 min, and then the calcium signal was read. • 4. The antagonist was prepared before the experiments. […] The plate was transferred to FLIPR, and 6× concentration of the agonist compound was added at 5 μL/well. The values were read and the data were saved by using FLIPR. The total assay volume was 30 μL, comprising 20 μL/well of dye buffer, 5 μL/well of 5× concentration of the experimental compound, and 5 μL/well of 6× concentration of the agonist compound.
The calcium signal value was read by FLIPR. The output of each sampling time point in the experiment was calculated as the ratio of the signals at wavelengths of 340/510 nm to 380/510 nm. The maximum minus minimum value was calculated from the ratio signal curve. The IC50 value of the compound was calculated by fitting the data of inhibition rate percentage and ten concentrations to the parametric nonlinear logistic equation by using GraphPad prism.

For assay [2], the target named is T1, NK3 receptors. Nature of the assay: Antagonism of IP1 in HEK293 cells with stable expression of NK3. In kind it is cell-based. The note with it: agonist Senktide 3 nM, read-out: NK3R IC50 (nM) IP1. As for the experimental part:
Determination of the Effect of the Compounds of the Present Invention on IP1 in HEK293 Cells with Stable Expression of NK3
The objective of this test example was to determine the antagonism effect of the compounds on the activity of HEK293-NK3 cells.
3. Experimental Methods: • 1. […] HEK293-NK3 cell line was cultured in complete medium and seeded in the coated dishes at 37° C., 5% CO2 until 70%˜90% confluence. • 3. […] The cells were digested and resuspended in 1× Stimulation Buffer (IP-ONE Gq Kit), seeded into the 384-well cell culture plate (which contained the compound to be tested) at 5,000 cells/well/5 μL by using Multidrop Combi. The culture plate was centrifuged at 300 rpm at room temperature for 60 seconds, and then incubated at 37° C., 5% CO2 for 15 minutes. • 5. The cell culture plate was taken out from the CO2 incubator. […] The culture plate was centrifuged at 300 rpm at room temperature for 60 seconds, and then incubated at 37° C., 5% CO2 for 2 hours. • 6. The cell culture plate was taken out from the CO2 incubator. 5 μL of IP1 d2 reagent and then 5 μL of IP1 Tb Cryptate Antibody reagent were added by using Multidrop Combi. The culture plate was centrifuged at room temperature at 300 rpm for 60 seconds, and left to stand at room temperature for 1 hour. • 7. The plate was read by using EnVision Multilabel Reader, and data were collected at the same time.
The fluorescence signal ratio (Ratio) was read and collected by EnVision Multilabel Reader. According to the readings of the Low control (DMSO control) and High control (p)ositive compound) experimental groups, the antagonism percentage data were calculated as {% antagonism=(Ratio sample−Ratio low control)/(Ratio high control−Ratio low control)×100}.

Regarding `COc1ccc2nc(-c3nnc4n3CCN(C(=O)c3ccc(Cl)c(Cl)c3)[C@@H]4C)sc2c1` [Example 31, (R)-(3,4-Dichlorophenyl)(3-(6-methoxybenzo[d]thiazol-2-yl)-8-methyl-5,6-dihydro-[1,2,4]triazolo[4,3-a]pyrazin-7(8H)-yl)methanone], the half-maximal inhibitory concentration (IC50) was found to be 86.7 nM on NK3 receptors [1] and 43.2 nM at NK3 receptors [2].

`Cc1cccc2sc(-c3nnc4n3CCN(C(=O)c3ccc(F)cc3)[C@@H]4C)nc12` [Example 22, (R)-(4-Fluorophenyl)(8-methyl-3-(4-methylbenzo[d]thiazol-2-yl)-5,6-dihydro-[1,2,4]triazolo[4,3-a]pyrazin-7(8H)-yl)methanone]: the IC50 on NK3 receptors [1] worked out at 73.3 nM; at NK3 receptors [2], 57 nM.

In the case of `C[C@@H]1c2nnc(-c3nc(N(C)C)ns3)n2CCN1C(=O)c1ccc(F)cc1` [Example 60, (R)-(3-(3-(Dimethylamino)-1,2,4-thiadiazol-5-yl)-8-methyl-5,6-dihydro-[1,2,4]triazolo[4,3-a]pyrazin-7(8H)-yl)(4-fluorophenyl)methanone], the figures for the half-inhibitory concentration (IC50) on NK3 receptors [1] and at NK3 receptors [2] were 205 nM and 190 nM, respectively.

As for `C[C@@H]1c2nnc(-c3nc4ccc(F)cc4s3)n2CCN1C(=O)c1ccc(F)cc1` [Example 12, (R)-(3-(6-Fluorobenzo[d]thiazol-2-yl)-8-methyl-5,6-dihydro-[1,2,4]triazolo[4,3-a]pyrazin-7(8H)-yl)(4-fluorophenyl)methanone], the IC50 was 37 nM on NK3 receptors [1] and 39.3 nM at NK3 receptors [2].

`C[C@@H]1c2nnc(-c3nc4ccc(Cl)cc4s3)n2CCN1C(=O)c1ccc(Cl)cc1` [Example 20, (R)-(3-(6-Chlorobenzo[d]thiazol-2-yl)-8-methyl-5,6-dihydro-[1,2,4]triazolo[4,3-a]pyrazin-7(8H)-yl)(4-chlorophenyl)methanone]: the IC50 was found to be 61 nM at NK3 receptors [1] and 27.3 nM at NK3 receptors [2].

In the case of `Cc1ccc2nc(-c3nnc4n3CCN(C(=O)c3ccc(Cl)cc3)[C@@H]4C)sc2c1` [Example 25, (R)-(4-Chlorophenyl)(8-methyl-3-(6-methylbenzo[d]thiazol-2-yl)-5,6-dihydro-[1,2,4]triazolo[4,3-a]pyrazin-7(8H)-yl)methanone], the results for the IC50 on NK3 receptors [1] and on NK3 receptors [2] were 58.4 nM and 47.8 nM, respectively.

For `C[C@@H]1c2nnc(-c3nc4cc(F)ccc4s3)n2CCN1C(=O)c1ccc(F)cc1` [Example 9, (R)-(3-(5-Fluorobenzo[d]thiazol-2-yl)-8-methyl-5,6-dihydro-[1,2,4]triazolo[4,3-a]pyrazin-7(8H)-yl)(4-fluorophenyl)methanone], the concentration for half-maximal inhibition (IC50) at NK3 receptors [1] was 33.3 nM; on NK3 receptors [2], 46 nM.

Turning to `C[C@@H]1c2nnc(-c3nc4ccc(F)cc4s3)n2CCN1C(=O)c1ccc(Cl)c(Cl)c1` [Example 14, (R)-(3,4-Dichlorophenyl)(3-(6-fluorobenzo[d]thiazol-2-yl)-8-methyl-5,6-dihydro-[1,2,4]triazolo[4,3-a]pyrazin-7(8H)-yl)methanone], the half-maximal inhibitory concentration (IC50) at NK3 receptors [1] amounted to 97.6 nM; at NK3 receptors [2] it was 41.9 nM.

In the case of `Cc1cccc2sc(-c3nnc4n3CCN(C(=O)c3ccc(Cl)cc3)[C@@H]4C)nc12` [Example 23, (R)-(4-Chlorophenyl)(8-methyl-3-(4-methylbenzo[d]thiazol-2-yl)-5,6-dihydro-[1,2,4]triazolo[4,3-a]pyrazin-7(8H)-yl)methanone], the concentration for half-maximal inhibition (IC50) on NK3 receptors [1] came out at 97.8 nM; on NK3 receptors [2], 43.6 nM.

In the case of `C[C@@H]1c2nnc(-c3nc4cc(F)ccc4s3)n2CCN1C(=O)c1ccc(Cl)c(Cl)c1` [Example 11, (R)-(3,4-Dichlorophenyl)(3-(5-fluorobenzo[d]thiazol-2-yl)-8-methyl-5,6-dihydro-[1,2,4]triazolo[4,3-a]pyrazin-7(8H)-yl)methanone], the half-maximal inhibitory concentration (IC50) on NK3 receptors [1] is 47.5 nM; at NK3 receptors [2], 176 nM.

For the compound `[2H]c1cc(C(=O)N2CCn3c(-c4nc5ccc(F)cc5s4)nnc3[C@H]2C)ccc1F` [Example 61, (R)-(3-(6-Fluorobenzo[d]thiazol-2-yl)-8-methyl-5,6-dihydro-[1,2,4]triazolo[4,3-a]pyrazin-7(8H)-yl)(4-fluorophenyl-3-d)methanone], the IC50 on NK3 receptors [1] was 78.9 nM; on NK3 receptors [2], 108 nM.

Turning to `COc1ccc2nc(-c3nnc4n3CCN(C(=O)c3ccc(F)cc3)[C@@H]4C)sc2c1` [Example 29, (R)-(4-Fluorophenyl)(3-(6-methoxybenzo[d]thiazol-2-yl)-8-methyl-5,6-dihydro-[1,2,4]triazolo[4,3-a]pyrazin-7(8H)-yl)methanone], the concentration for half-maximal inhibition (IC50) on NK3 receptors [1] stood at 65.8 nM; on NK3 receptors [2] it was 29 nM.

As for `C[C@@H]1c2nnc(-c3nc4ccc(C#N)cc4s3)n2CCN1C(=O)c1ccc(F)cc1` [Example 21, (R)-2-(7-(4-Fluorobenzoyl)-8-methyl-5,6,7,8-tetrahydro-[1,2,4]triazolo[4,3-a]pyrazin-3-yl)benzo[d]thiazol-6-carbonitrile], the values for the 50% inhibitory concentration (IC50) on NK3 receptors [1] and on NK3 receptors [2] were 123 nM and 28.2 nM, respectively.

On to `C[C@@H]1c2nnc(-c3nc4ccc(F)cc4s3)n2CCN1C(=O)c1ccc(Cl)cc1` [Example 13, (R)-(4-Chlorophenyl)(3-(6-fluorobenzo[d]thiazol-2-yl)-8-methyl-5,6-dihydro-[1,2,4]triazolo[4,3-a]pyrazin-7(8H)-yl)methanone], for which the IC50 came out at 71.6 nM on NK3 receptors [1] and 131 nM on NK3 receptors [2].

In the case of `[2H]c1cc(C(=O)N2CCn3c(-c4nc5cc(Cl)c(F)cc5s4)nnc3[C@H]2C)ccc1F` [Example 105, (R)-(3-(5-Chloro-6-fluorobenzo[d]thiazol-2-yl)-8-methyl-5,6-dihydro-[1,2,4]triazolo[4,3-a]pyrazin-7(8H)-yl)(4-fluorophenyl-3-d)methanone], the figures for the 50% inhibitory concentration (IC50) on NK3 receptors [1] and on NK3 receptors [2] were 268 nM and 108 nM, respectively.

Consider `C[C@@H]1c2nnc(-c3nc(Br)ns3)n2CCN1C(=O)c1ccc(F)cc1` [Example 98], for which the IC50 on NK3 receptors [1] came to 78.4 nM; at NK3 receptors [2], 100 nM.

Consider `C[C@@H]1c2nnc(-c3nc4ccccc4s3)n2CCN1C(=O)c1ccc(Cl)c(Cl)c1` [Example 4, (R)-(3-(Benzo[d]thiazol-2-yl)-8-methyl-5,6-dihydro-[1,2,4]triazolo[4,3-a]pyrazin-7 (8H)-yl)(3,4-dichlorophenyl)methanone], for which the IC50 on NK3 receptors [1] worked out at 61.3 nM; on NK3 receptors [2], 94.3 nM.

Consider `C[C@@H]1c2nnc(-c3nc4cnc(Cl)cc4s3)n2CCN1C(=O)c1ccc(Cl)cc1` [Example 97, (R)-(4-Chlorophenyl)(3-(6-chlorothiazolo[4,5-c]pyridin-2-yl)-8-methyl-5,6-dihydro-[1,2,4]triazolo[4,3-a]pyrazin-7(8H)-yl)methanone], for which the figures for the IC50 at NK3 receptors [1] and on NK3 receptors [2] were 156 nM and 172 nM, respectively.

Regarding `[2H]c1cc(C(=O)N2CCn3c(-c4nc5ccc(Cl)cc5s4)nnc3[C@H]2C)ccc1F` [Example 103, (R)-(3-(6-Chlorobenzo[d]thiazol-2-yl)-8-methyl-5,6-dihydro-[1,2,4]triazolo[4,3-a]pyrazin-7(8H)-yl)(4-fluorophenyl-3-d)methanone], the IC50 on NK3 receptors [1] is 27.1 nM; at NK3 receptors [2], 16 nM.

With `COc1ccc2nc(-c3nnc4n3CCN(C(=O)c3ccc(Cl)cc3)[C@@H]4C)sc2c1` [Example 30, (R)-(4-Chlorophenyl)(3-(6-methoxybenzo[d]thiazol-2-yl)-8-methyl-5,6-dihydro-[1,2,4]triazolo[4,3-a]pyrazin-7(8H)-yl)methanone], the half-maximal inhibitory concentration (IC50) at NK3 receptors [1] came to 47.4 nM; on NK3 receptors [2], 187 nM.
